Data taken from PubChem BioAssay (NCI).
Where “and” joins values, the source holds several entries; their conditions need not be identical. Equal entries are not always repeated.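 48-hour exposure; five concentrations; linearly interpolated endpoints. GI50 is the concentration that inhibits growth by half. The concentration for full growth arrest is given as TGI.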

Legend:
Assay in all cases: NCI tumour cell line growth inhibition, 48 h
MDA-MB-231 breast = system: MDA-MB-231 breast
UACC-62 melanoma = system: UACC-62 melanoma
OVCAR-8 ovarian = system: OVCAR-8 ovarian
SK-MEL-28 melanoma = system: SK-MEL-28 melanoma
EKVX NSCLC = system: EKVX NSCLC
NCI-H23 lung = system: NCI-H23 lung
ACHN renal = system: ACHN renal
OVCAR-5 ovarian = system: OVCAR-5 ovarian
OVCAR-3 ovarian = system: OVCAR-3 ovarian
SNB-19 CNS = system: SNB-19 CNS

Structure (SMILES)	GI50 (MDA-MB-231 breast) [µM]	TGI (MDA-MB-231 breast) [µM]	GI50 (UACC-62 melanoma) [µM]	TGI (UACC-62 melanoma) [µM]	GI50 (OVCAR-8 ovarian)	TGI (OVCAR-8 ovarian) [µM]	GI50 (SK-MEL-28 melanoma) [µM]	TGI (SK-MEL-28 melanoma) [µM]	GI50 (EKVX NSCLC) [µM]	TGI (EKVX NSCLC) [µM]	GI50 (NCI-H23 lung) [µM]	TGI (NCI-H23 lung) [µM]	GI50 (ACHN renal) [µM]	TGI (ACHN renal) [µM]	GI50 (OVCAR-5 ovarian) [µM]	TGI (OVCAR-5 ovarian) [µM]	GI50 (OVCAR-3 ovarian) [µM]	TGI (OVCAR-3 ovarian) [µM]	TGI (SNB-19 CNS) [µM]	GI50 (SNB-19 CNS)
CO/N=C(/COc1c(-c2ccccc2)oc2ccccc2c1=O)c1ccc(F)cc1	20.5	53.8	96.1	> 100	53 µM	> 100	> 100	> 100	> 100	> 100	> 100	> 100	31.8	> 100	> 100	> 100	56.7	> 100		
C[Si]12OCCCN(CCO1)CCO2				> 100		> 100		> 100		> 100		> 100		> 100		> 100		> 100	> 100	
COc1ccc(-n2c3c(c4c(CN(C)C)c(O)c(C)cc42)CCc2ccccc2C3=O)cc1	25	90.1	30.6	> 100	31.6 µM	> 100			44.5	> 100	14	69	47	> 100	35.2	> 100	34.2	97.2	> 100	> 100 µM
NC1=C(Cl)C(=O)c2ccccc2C1=O				2.76		27.8		11.3		28.4		6.32		22.7		23.7		7.29	24.2	
CCCCCCN1CCN(Cc2ccc(N(CC)CC)cc2)C(=O)C1=O	4.97	> 100	3.54	> 100	5.42 µM	> 100	7.17	> 100			4.05	62.5	6.45	> 100	5.41	> 100			> 100	4.08 µM
COc1ccc(-c2nc3sc4c(c3c(=O)[nH]2)CCCC4)c2ccccc12		> 100		16.3	0.474 µM and 0.0475 µM	> 100	0.468		1.8		0.57		0.755		0.301	4.59			> 100	0.411 µM and 0.0467 µM
CN1C(=O)C(c2c[nH]c3ccccc23)=C(c2c(-c3c[nH]c4ccccc34)[nH]c3ccccc23)C1=O	4.09	26.9	2.91	5.54	3.2 µM	11	10.4	31.4			1.7	4.72	3.4	13.9	2.85	11.3	0.92	2.99	18.8	3.95 µM
Cn1c(=O)oc2cc(C3CCC(=O)N3Cc3ccc(Cl)cc3)ccc21 (stereo not drawn)				> 100		> 100		> 100		> 100		> 100		> 100		> 100			> 100	
Cc1cc2c(cc1Br)C1(C)CCC(C)C1(C)O2 (stereo not drawn)				> 100		> 100		> 100		> 100		67.4		> 100		> 100		53.2	> 100	
COc1ccc(-c2csc3c2-n2cccc2C3=O)cc1O	0.0925	> 100	0.387	49.2	0.0281 µM	> 100					0.056	> 42.4	< 0.0489	> 100	1.5	> 100	< 0.0152	0.0434	> 100	3.44 µM
C=C1C(=O)O[C@H]2C[C@@H]1CCC1(C)OC1CC/C(C)=C/CC[C@H]2C (stereo partly drawn)	17.7	32.2	17.5	31.3	26.8 µM	72.2			24.3	44.3	19.6	37.1	> 100	> 100	15.9	30	19.1	35.1	32.9	16 µM
N=C(N)c1ccc(-c2ccc(-c3ccc(F)cc3)o2)o1	1.57	3.33	1.74	3.27			1.63	3.18	1.35	3.18	1.93	4.88	1.6	2.97	1.66	3.4	1.84	4.16	4.05	1.73 µM
CNC(=O)OCc1[nH]ccc2c(C)c3nc4ccc(OC)cc4c3cc12				> 56.7		> 24.9		> 81		> 100		> 22.2		18		> 100		> 67.8	> 25.1	
CCOC(=O)/C(=C\c1ccc(F)cc1)C(C)=O		52		38.1		94.6				83.6		46		50.7		> 100		> 100	> 100	
O=C(O)CCCNS(=O)(=O)c1ccc2ccccc2c1				> 100		> 100		> 100		> 100		> 100		> 100		> 100		> 100	> 100	
CC(=O)O[C@H]1CC[C@@]2(C)C(=CC[C@@H]3C2CC[C@]2(C)Nc4[nH]ncc4CC32)C1 (stereo partly drawn)				57.1		> 100		> 100		> 100		> 100		> 100		> 100		36.5		
NC(N)=N/N=C/c1c(-c2ccc(Cl)c([N+](=O)[O-])c2)nc2ccccn12	1.69	3.29							2.5	13	1.92	3.95	11.3	34.9	1.73	3.21	1.59	3.11		
CC(=O)OC12CC(C)C3(O)C4C=C(C)C(=O)[C@@]4(O)CC(CO)=C[C@H]3C1C2(C)C (stereo partly drawn)				> 1000	> 1000 µM	> 1000	> 1000	> 1000	> 1000	> 1000	> 1000	> 1000	> 1000	> 1000	> 1000	> 1000	> 1000	> 1000	> 1000	> 1000 µM
CN(CCN(C)C(=O)CCOS(C)(=O)=O)C(=O)CCOS(C)(=O)=O				> 100		> 100		> 100		> 100		> 100		> 100		> 100		> 100	> 100	

Structure (SMILES)	GI50 (MDA-MB-231 breast) [µM]	TGI (MDA-MB-231 breast) [µM]	GI50 (UACC-62 melanoma) [µM]	TGI (UACC-62 melanoma) [µM]	GI50 (OVCAR-8 ovarian)	TGI (OVCAR-8 ovarian) [µM]	GI50 (SK-MEL-28 melanoma) [µM]	TGI (SK-MEL-28 melanoma) [µM]	GI50 (EKVX NSCLC) [µM]	TGI (EKVX NSCLC) [µM]	GI50 (NCI-H23 lung) [µM]	TGI (NCI-H23 lung) [µM]	GI50 (ACHN renal) [µM]	TGI (ACHN renal) [µM]	GI50 (OVCAR-5 ovarian) [µM]	TGI (OVCAR-5 ovarian) [µM]	GI50 (OVCAR-3 ovarian) [µM]	TGI (OVCAR-3 ovarian) [µM]	TGI (SNB-19 CNS) [µM]	GI50 (SNB-19 CNS)
CCOC(=O)c1cnc2cc3cccccc3n2c1=O				> 100		> 100		> 100		> 100		> 100		> 100		> 100		> 100	> 100	
Clc1cc(Cl)cc(Nc2nc3ccccc3nc2-c2cccs2)c1						27				> 100		> 100		60.3		> 100		72		
COc1ccc2c(c1)CCCC1C3=NCCC3(C)CSC21 (stereo not drawn)				> 100		> 100		> 100				> 100						> 100	> 100	
N/C(=N\c1nc2ccccc2s1)NC(=O)Nc1cccc2ccccc12	0.636	3.32	0.354	> 95	0.521 µM	> 100	12.9	> 100	0.462	> 100	0.462	> 28.4			0.696	> 100	0.228	1.09	> 81.2	0.574 µM
O=CN1CCN(C=S)CC1				> 100		> 100		> 100		> 100		> 100		> 100		> 100		> 100	> 100	
NC(=O)c1c2c(cc3c(=O)c4ccccc4[nH]c13)CCCC2				> 100		> 100		> 100		> 100		> 100		> 100		> 100		> 100	> 100	
CCC[CH2][Sn]1([CH2]CCC)[O]C(=O)CN=Cc2ccccc2[O]1			0.197	0.46	0.346 µM	1.39	0.343	1.1	0.477	1.81	0.136	0.333	0.323	1.1	1.63	2.98	0.545	1.82	0.556	0.222 µM
CC1CC2(CCC1OCc1ccccc1)OCCO2 (stereo not drawn)				> 100		> 100				> 100		> 100						> 100	> 100	
COc1cc(OC)cc(-c2cncn2-c2ccc(-c3nc4cc(OC)cc(OC)c4s3)cc2)c1	9.01	> 100	4.75	> 100	14.5 µM	> 100	> 100	> 100			10.3	> 100	> 100	> 100	> 100	> 100	2.87	> 100	> 100	> 100 µM
Cc1ccc(Oc2nc3ccccc3cc2-c2nnc(Cn3c(COc4ccccc4)nc4ccccc43)o2)cc1	1.64	4.62	5.62	20.7	2.12 µM	7.52					4.66	20.7					2.41	6.65	17	3.78 µM
CN(C)CCNC(=O)c1nc([N+](=O)[O-])cn1C		> 100		> 100		> 100		> 100				> 100		> 100		> 100		> 100	> 100	
Cc1cc(C)c2c(N)c3cccc(C)c3nc2n1	1.56	6.27			1.55 µM	14.8	3.86	15.9	3.17	33.5	1.59	3.96	0.852	5.08	2.1	5.71	2.57	5.46	8.73	2.21 µM
CC1=CC2CC(C)C1(C)CCc1ccoc12 (stereo not drawn)				> 100		> 100		> 100		> 100		> 100		> 100		> 100		> 100	> 100	
OCc1ccc(Oc2c3ccccc3nc3occc23)cc1	39.4	> 100	20	47.3	28.3 µM	> 100	41.4	> 100			17.9	40.3			29.5	> 100	22.1	39.7	> 100	39.8 µM
COC(=O)C1=Cc2c(cc(OC)c(OC)c2OC)[C@H](c2ccc(OC)c(OC)c2OC)C1C(=O)OC (stereo partly drawn)				> 100		> 100		> 100		> 100		> 100		> 100		> 100		> 100	> 100	
Cc1c(O)c(=O)ccn1CCO				> 100		> 100		> 100		> 100				> 100		> 100		> 100	> 100	
COc1ccccc1NC(=O)C1=C(C)NC(C)=C(C(=O)Nc2ccccc2OC)C1c1cccc2c1OCO2				> 100		> 100		> 100		> 100		> 100		> 100		> 100		> 100	> 100	
CCOC(=O)C(=O)Nc1ccc(Cl)c(C(F)(F)F)c1				> 100		> 100		> 100		> 100		> 100		> 100		> 100		> 100	> 100	
Cc1ccc(F)cc1NC(=O)c1cc(Cl)ccc1Nc1ccccc1	6.96	> 100	> 100	> 100	58.8 µM	> 100	> 100	> 100			> 100	> 100	> 100	> 100	> 100	> 100	> 100	> 100	> 100	> 100 µM
